Experimental data from patent publication US10570157B2, “Cyclic diarylboron derivatives as NLRP3 inflammasome inhibitors” (The University of Manchester, priority 2015, dated 2020).

Columns and labels:
[1] = test system: inflammasome / IL-1β release in THP1 cell line; experiment: IL-1β release from LPS-primed, nigericin-activated THP1 cells (ELISA); type: cell-based, human; details: for potency in the screen of NBC molecules (effect on IL-1β release): 10 μM compound, 15 min before nigericin (20 μM, 1 h), LPS-primed THP1 cells, normalised to nigericin-induced IL-1β release
Experimental: Data are the mean±SD of at least 4 separate experiments.
To screen the compounds of the invention, the human monocytic THP1 cell line was used. Cells were primed with LPS (1 μg/ml, 4 h) and then treated with vehicle (0.5% DMSO) or NBC molecule of the invention (see compounds listed below) at 10 μM for 15 min before activation of the inflammasome and IL-1β release with nigericin (20 μM, 1 h). The NBC molecule was present throughout nigericin stimulation. The effects of the molecules on IL-1β release were normalised to nigericin-induced IL-1β release in the absence of any inhibitor (FIGS. 1-3).

In the case of CC1=[O+][B-](c2ccccc2)(c2ccccc2)NC(C(Cl)(Cl)Cl)=C1C(=O)OC(C)(C)C [compound 41, 5-(tert-Butoxycarbonyl)-2,2-di phenyl-6-methyl-4-(trichloromethyl)-2,3-dihydro-1,3,2-oxazaborinin-1-ium-2-uide], the melting point is reported as 147 to 149 °C.

In the case of CC(=O)C1=C(C(Cl)(Cl)Cl)N[B-](c2ccccc2)(c2ccccc2)[O+]=C1NCc1ccc2ccc3cccc4ccc1c2c34, the melting point is reported as 167 to 169 °C (dec.).

In the case of CC(=O)C1=C(C(Cl)(Cl)Cl)N[B-](c2ccccc2)(c2ccc(C)cc2)[O+]=C1N (stereo not drawn) [compound 59, 5-Acetyl-6-amino-2-(phenyl)-2-(p-tolyl)-4-(trichloromethyl)-2,3-dihydro-1,3,2-oxazaborinin-1-ium-2-uide], the melting point is reported as 141 to 143 °C.

In the case of CC(=O)C1=C(C(Cl)(Cl)Cl)N[B-](c2ccccc2)(c2ccccc2)[O+]=C1NC1CCCCC1 [compound 48, 5-Acetyl-6-(cyclohexylamino)-2,2-diphenyl-4-(trichloromethyl)-2,3-dihydro-1,3,2-oxazaborinin-1-ium-2-uide], the “potency in the screen of NBC molecules (effect on IL-1β release)” value (“potency in the screen of NBC molecules” below) [1] is reported as “most potent” and the melting point is reported as 53 to 54 °C.

With CC(=O)C1=C(C(Cl)(Cl)Cl)N[B-](c2ccccc2)(c2ccccc2)[O+]=C1N [compound 14, (Z)-2-Acetyl-3-amino-4,4,4-trichlorobut-2-enamide diphenylboron] the “potency in the screen of NBC molecules” value [1] was “most potent” and the IC50 ([1]; Homo sapiens, THP-1, THP1 cells, LPS primed, nigericin stimulated, FIG. 3) was 500 nM.

For CC(=O)C1=C(C(Cl)(Cl)Cl)N[B-](c2ccc(C)cc2)(c2ccc(C)cc2)[O+]=C1N [compound 57, 5-Acetyl-6-amino-2,2-bis(p-tolyl)-4-(trichloromethyl)-2,3-dihydro-1,3,2-oxazaborinin-1-ium-2-uide], the melting point was 145 to 148 °C (dec.).

With NC(=O)C1=C(C(Cl)(Cl)Cl)N[B-](c2ccccc2)(c2ccccc2)[O+]=C1N [compound 42, 6-Amino-5-carbamoyl-2,2-diphenyl-4-(trichloromethyl)-2,3-dihydro-1,3,2-oxazaborinin-1-ium-2-uide] the “potency in the screen of NBC molecules” value [1] was “most potent”.
